Assay results taken from PMC12480552 (Scientific Reports, 2025).
Like-named read-outs stand apart in the source and are kept apart here.

Legend:
[1] = LC-MS/MS bioanalysis of plasma and brain homogenate, mouse model of brain metastasis (MDA231-BrM2-831); assay type: in vivo, NCr nude mice; conditions: for Kp at 2 h / Kp uu at 2 h / concentration at 2 h: female, NCr nude (CrTac:NCr-Foxn1nu), mouse, oral; for concentration at 2 h: oral once daily 5 days, niraparib 35 mg/kg or olaparib 50 mg/kg, 2 h after final dose
Text: (§1) A luciferase-transfected human breast adenocarcinoma cell line (MDA 231-BRM2-831) was used to generate a metastatic brain tumor model in female athymic nude mice. […] NCr nude mice (strain: CrTac: NCr-Foxn1^nu; female; 5–7 weeks old; Taconic Biosciences (Germantown, NY)) were used for these studies. A power analysis was completed by a statistician to determine the appropriate sample sizes for each group to measure a statistically significant. […] Control mice (n = 10) underwent a sham IC procedure (needle insertion into the ventricle without cell injection. All mice were monitored for tumor development by bioluminescence imaging (BLI) approximately once weekly for ~ 45 days, beginning 1 h after cell injection. In vivo BLI was performed at ~ 10 min post-luciferin injection (corresponding to the peak bioluminescent signal) using an IVIS Spectrum-CT system (PerkinElmer, Waltham, MA). Imaging parameters were set to automatic exposure in the Living Image software, while the binning (8) and aperture (open f-stop) remained at the default settings for all BLI acquisitions. The imaging frequency was increased to twice weekly for mice that developed brain metastases (BMs) as indicated by increased bioluminescence in the cranial region. […] The exact tumor size was not measured as an endpoint of this study. […] Two hours after the final dose, mice were euthanized by CO2 asphyxiation. At necropsy, a terminal blood sample was collected via cardia puncture, and the brains were harvested and snap-frozen by floating on liquid nitrogen. […] From each plane, serial tissue sections were collected for MALDI MSI and for H&E staining, and immunohistochemistry (IHC) staining. Tissue trimmings from between each plane were collected, homogenized, and submitted for bioanalysis in addition to the terminal plasma samples.

[2] = MALDI MSI of brain sections, mouse model of brain metastasis (MDA231-BrM2-831); assay type: in vivo, NCr nude mice
Text: as §1, with “5-7” for “5–7”, “samples. For the mouse metastases study, tissue sections were collected from five horizontal tissue planes starting from roughly 1 mm from the top of the tissue, and each subsequent tissue plane was separated by roughly 1 mm. […] For MALDI MSI analysis, sections were thaw-mounted onto indium tin oxide-coated slides (Delta Technologies, Ltd, Loveland, CO). For H&E and IHC analyses, tissue sections were collected onto superfrost glass slides (Fisher Scientific, Waltham, MA). Brain tissue trimmings from between each of the horizontal planes were pooled and collected into a pre-weighed vial for homogenization and LC-MS/MS bioanalysis (described in detail later). […] Arraymold, Ogden, UT). […] DMSO: […] […] Ion images were loaded into […] […] Statistical significance was set at p < 0.05.” for “samples.”

[3] = brain, BM mice (niraparib n = 4, olaparib n = 3), read-out: Group mean (SD) Kp, brain
[4] = brain, BM mice (niraparib n = 4, olaparib n = 3), read-out: Group mean (SD) Kp, uu, brain
[5] = brain, No BM mice (n = 3), read-out: LC-MS/MS Bulk brain tissue, mean (SD)
[6] = brain, No BM mice (n = 3), read-out: Group mean (SD) Kp, brain
[7] = brain, No BM mice (n = 3), read-out: Group mean (SD) Kp, uu, brain
[8] = brain, all mice (BM and no-BM combined), read-out: Mean Kp, brain
[9] = brain, all mice (BM and no-BM combined), read-out: Mean Kp, uu, brain
[10] = plasma, No BM mice (n = 3), read-out: LC-MS/MS Terminal plasma, mean (SD)
[11] = BM mice (niraparib n = 4, olaparib n = 3), oral once daily 5 days, niraparib 35 mg/kg or olaparib 50 mg/kg, 2 h after final dose, LOD 70 ng/g niraparib, 170 ng/g olaparib

SMILES: O=C(c1cc(Cc2n[nH]c(=O)c3ccccc23)ccc1F)N1CCN(C(=O)C2CC2)CC1 [Olaparib]
- Kp at 2 h [1, 3]: 0.102
- Kp uu at 2 h [1, 4]: 0.047
- concentration at 2 h [1, 5]: 5 ng/g
- Kp at 2 h [1, 6]: 0.027
- Kp uu at 2 h [1, 7]: 0.015
- Kp at 2 h [1, 8]: 0.036
- Kp uu at 2 h [1, 9]: 0.022
- concentration at 2 h [1, 10]: 226 ng/mL
- MALDI MSI Brain sections, mean (SD) [2, 11]: < LOD
- MALDI MSI Brain tumors, mean (SD) [2, 11]: < LOD
- MALDI MSI Brain sections, mean (SD) ([2]; No BM mice (n = 3), oral once daily 5 days, niraparib 35 mg/kg or olaparib 50 mg/kg, 2 h after final dose, LOD 70 ng/g niraparib, 170 ng/g olaparib): < LOD

SMILES: NC(=O)c1cccc2cn(-c3ccc([C@@H]4CCCNC4)cc3)nc12 [Niraparib]
- overall mean Kp, uu, brain, niraparib higher than olaparib ([1]; all mice (BM and no-BM combined)): about 1.2 fold
- Kp at 2 h [1, 3]: 0.214
- Kp uu at 2 h [1, 4]: 0.03
- concentration at 2 h [1, 5]: 658 ng/g
- Kp at 2 h [1, 6]: 0.171
- Kp uu at 2 h [1, 7]: 0.024
- Kp at 2 h [1, 8]: 0.193
- Kp uu at 2 h [1, 9]: 0.026
- concentration at 2 h [1, 10]: 3850 ng/mL
- concentration at 2 h ([2]; female, NCr nude (CrTac:NCr-Foxn1nu), mouse, brain (sections), oral, 35 mg/kg, read-out: MALDI MSI Brain sections, mean (SD)): 519 ng/g
- concentration at 2 h ([2]; female, NCr nude (CrTac:NCr-Foxn1nu), mouse, brain metastasis tumor tissue, oral, 35 mg/kg, all tumor-containing sections (n = 42) in all BM animals (n = 4), niraparib 35 mg/kg, read-out: MALDI MSI mean localized tumor concentration): ~1700 ng/g
- concentration at 2 h ([2]; female, NCr nude (CrTac:NCr-Foxn1nu), mouse, brain tumor, oral, 35 mg/kg, read-out: MALDI MSI Brain tumors, mean (SD)): 2400 ng/g
- concentration at 2 h ([2]; female, NCr nude (CrTac:NCr-Foxn1nu), mouse, brain ventricles, oral, 35 mg/kg, all ventricle-containing sections (n = 48) in all BM animals, niraparib 35 mg/kg, read-out: MALDI MSI mean concentration in the ventricles): ~1860 ng/g
- concentration at 2 h ([2]; female, NCr nude (CrTac:NCr-Foxn1nu), mouse, brain, oral, 35 mg/kg, read-out: MALDI MSI Brain sections, mean (SD)): 487 ng/g
- Kp at 2 h ([2]; female, NCr nude (CrTac:NCr-Foxn1nu), mouse, oral, 35 mg/kg, BM mice, mean brain tumor ROI total concentration by MALDI MSI versus terminal plasma total concentration): 0.945
- concentration at 2 h ([2]; female, NCr nude (CrTac:NCr-Foxn1nu), mouse, whole brain (sections), oral, 35 mg/kg, Brain Metastases, Mouse 1, Fig. 2B, read-out: MALDI MSI Mean Conc., whole brain, individual mouse): 430 ng/g
- concentration at 2 h ([2]; female, NCr nude (CrTac:NCr-Foxn1nu), mouse, whole brain (sections), oral, 35 mg/kg, Brain Metastases, Mouse 2, Fig. 2B, read-out: MALDI MSI Mean Conc., whole brain, individual mouse): 640 ng/g
- concentration at 2 h ([2]; female, NCr nude (CrTac:NCr-Foxn1nu), mouse, whole brain (sections), oral, 35 mg/kg, Brain Metastases, Mouse 3, Fig. 2B, read-out: MALDI MSI Mean Conc., whole brain, individual mouse): 540 ng/g
- concentration at 2 h ([2]; female, NCr nude (CrTac:NCr-Foxn1nu), mouse, whole brain (sections), oral, 35 mg/kg, Brain Metastases, Mouse 4, Fig. 2B, read-out: MALDI MSI Mean Conc., whole brain, individual mouse): 340 ng/g
- concentration at 2 h ([2]; female, NCr nude (CrTac:NCr-Foxn1nu), mouse, whole brain (sections), oral, 35 mg/kg, No Brain Metastases, Mouse 8, Fig. 2B, read-out: MALDI MSI Mean Conc., whole brain, individual mouse): 400 ng/g
- concentration at 2 h ([2]; female, NCr nude (CrTac:NCr-Foxn1nu), mouse, whole brain (sections), oral, 35 mg/kg, No Brain Metastases, Mouse 9, Fig. 2B, read-out: MALDI MSI Mean Conc., whole brain, individual mouse): 560 ng/g
- concentration at 2 h ([2]; female, NCr nude (CrTac:NCr-Foxn1nu), mouse, whole brain (sections), oral, 35 mg/kg, No Brain Metastases, Mouse 10, Fig. 2B, read-out: MALDI MSI Mean Conc., whole brain, individual mouse): 600 ng/g
